Measurements published in PMC5872333, “Antifungal Potential of Host Defense Peptide Mimetics in a Mouse Model of Disseminated Candidiasis” (Journal of Fungi, 2018).
Converted amounts (≈) assume the structure as drawn. Like-named read-outs stand apart in the source and are kept apart here.

Tests used:
C. albicans [1] = assay: Yeast membrane permeability, propidium iodide incorporation (flow cytometry); assay type: cell-based, Candida albicans
Method: C. albicans was suspended in RPMI/MOPS media to a total concentration of 2 × 10^6 cfu/mL. One ml aliquots of the C. albicans suspension were treated with each mimetic compound at a concentration of 32 µg/mL, using 95% ethanol as positive control. Samples were incubated with the mimetics at 30 °C for 0, 5, 15 and 30 min. After treatment, samples were centrifuged at 5000 rpm for 5 min. Supernatants were removed and pellets were washed twice with 1 mL of PBS. […] Samples were analyzed by flow cytometry (FACSCalibur, Becton Dickinson, Immunocytometry Systems, San Jose, CA, USA) to assess percent uptake of PI.

C. tropicalis (ATCC 750) = assay: MIC broth microdilution, C. tropicalis; assay type: cell-based; conditions: Candida tropicalis, ATCC750; read-out: NAC species MIC, C. tropicalis
Method: (§1) A standard invasive candidiasis strain of C. albicans SC5314 was used for peptide mimetic compounds screening. Non-albicans Candida species (NAC) C. dubliniensis (NCPF3949), C. glabrata (ATCC 90030), C. krusei (ATCC 6258), C. parapsilosis (ATCC 22019) and C. tropicalis (ATCC 750) (obtained from the laboratory of David Perlin, PHRI/Rutgers), were cultured on YPD (1% yeast extract, 2% peptone, 2% dextrose, pH 5.7) agar at 37°C and were used for all experimental studies. Fluconazole resistant clinical isolates of C. glabrata from five different patients and C. tropicalis from one patient were collected from the clinical microbiology laboratory, Shands Hospital, University of Florida, Gainesville, FL, USA.
(§2) Candida albicans […], NAC species and fluconazole-resistant clinical isolates of invasive candidiasis strains of C. glabrata and C. tropicalis were used for minimum inhibitory concentration (MIC) and minimum fungicidal concentration (MFC) studies of lead compounds. MICs were determined using the Clinical and Laboratory Standards Institute (CLSI) standard broth microdilution method. Suspensions of C. albicans were prepared by measuring optical density at 595 nm (OD595) of 1.0 in phosphate buffered saline (PBS). HDP mimetic compounds were diluted in 50 µL RPMI/MOPS cell culture medium in a 96-well plate (tissue culture treated; Costar, Corning Incorporated, Corning, NY, USA). To each well, a suspension (50 µL) of Candida was added, and then plate was incubated at 37 °C in a humidified chamber for a period of 24 h. To determine the MFC, a sample (100 µL) from the well defined as having the MIC and the wells with other three higher concentrations were plated onto YPD agar. Candida colonies were observed after 24 h. The MFC is defined as the lowest concentration of compound at which no colonies are observed. All MIC and MFC assays were performed in duplicate.

[2] = Mammalian cell cytotoxicity, MTS viability assay, 3T3; assay type: cell-based; conditions: mouse, 3T3 fibroblasts (ATCC CRL-1658), 3T3 cells, 1 h exposure without serum
Method: Cytotoxicity (50% effective concentration (EC50)) was determined against mouse 3T3 fibroblasts (ATCC CRL-1658), OKF6/TERT-1 cells (oral keratinocytes), and human transformed liver HepG2 cells (ATCC HB-8065), using an MTS viability assay (Promega, Fitchburg, WI, USA). Growth medium was replaced with medium without serum, and eight 2-fold dilutions of compound were added. Following incubation for 1 h at 37 °C, compounds were removed, and medium containing serum was returned. Viability was determined using an MTS viability assay (CellTiter 96 aqueous nonradioactive cell proliferation assay, Promega).

whole human blood = assay: Hemolysis assay; assay type: cell-based; conditions: 0.5 h, 30 min, 37 °C
Method: Peptide mimetic compounds were tested in duplicate using a hemolysis assay previously published. Briefly, two-fold serial dilutions starting at 2 mg/mL in 150 mM NaCl (saline), 20% DMA (Alfa Aesar, Ward Hill, MA, US), or 10% kleptose in saline. 3% saponin (Fluka) in saline was used as a positive control. Each dilution of each compound (25 µL) was plated in a 96-well round bottomed plate and 25 µL of whole human blood (BIORECLAMATION, Westbury, NY, USA) was added to each sample and mixed for 10 second. The blood was Type O, from 2 males and 2 females, collected with potassium EDTA to prevent clotting. Plates were incubated on a shaker for 30 min at 37 °C, then centrifuged at 600× g for 5 min. 5 µL of the supernatant was transferred to a 96-well flat-bottomed plate with 200 µL H2O in each well and mixed for 5 min. Absorbance was read at 405 nm (Spectramax 250, Molecular Devices, San Jose, CA, USA). Percent hemolysis was then calculated as:
P = (OD405 (PMX compound) – OD405 (control))/(OD405 (Saponin) – OD405 (control))
Curves were fitted to report an HC50 (50% hemolysis) value for each compound: […]

C. krusei (ATCC 6258) = assay: MIC broth microdilution, C. krusei; assay type: cell-based, Candida krusei; conditions: Pichia kudriavzevii, ATCC6258; read-out: NAC species MIC, C. krusei
Method: as §1, §2

[3] = system: C. dubliniensis (NCPF3949); assay: MIC broth microdilution, C. dublinensis; assay type: cell-based; conditions: Candida dubliniensis, read-out: NAC species MIC, C. dublinensis
Method: as §1, §2

[4] = Maximum tolerated dose (MTD) determination; conditions: mouse, in vivo, sc
Method: Female CD-1 mice (Charles River Laboratories), 8–10 weeks old, >20 g were used to determine the MTD. Mice were housed individually in stainless steel, wire-bottom cages to minimize access to urine and feces and fed Harlan Teklad Certified Global Diet® with tap water ad libitum. Mice were acclimated to the study room at least 3 days prior to dosing. Mice (3 per group) were dosed with a subcutaneous (SC) bolus injection beginning with 10 mg/kg of the test compound at a concentration of 2 mg/mL. Doses were lowered two-fold for subsequent groups to find the MTD. The dose volume was […], calculated using the weight of the animal on the day of injection. There were 3 dose events, with 2 days between each event. […] Body weights were obtained daily until the day of euthanization with a CO2 overdose. Any mortality during the study was also recorded. MTD data were obtained by Ricerca Biosciences, LLC, Concord, OH, USA. MTD of each HDP mimetic in CD-1 mice was determined and our studies utilized doses beginning with 0.5X MTD.

[5] = system: Candida albicans, strain SC5314; assay: MIC/MFC, CLSI broth microdilution, C. albicans; assay type: cell-based
Method: as §1, §2

C. glabrata (ATCC 90030) = assay: MIC broth microdilution, C. glabrata; assay type: cell-based, Candida glabrata; conditions: Nakaseomyces glabratus, ATCC90030; read-out: NAC species MIC, C. glabrata
Method: as §1, §2

[6] = system: C. parapsilosis (ATCC 22019); assay: MIC broth microdilution, C. parapsilosis; assay type: cell-based, Candida parapsilosis; conditions: Lodderomyces parapsilosis, ATCC22019; read-out: NAC species MIC, C. parapsilosis
Method: as §1, §2

C. albicans [7] = assay: MIC assay in the presence of CaCl2 (divalent cation inhibition); assay type: cell-based; conditions: Candida albicans, 2.5 mM CaCl2
Method: as §2, with “The MFC is defined as the lowest concentration of compound at which no colonies are observed. All MIC and MFC assays were performed in duplicate.” left out
To assess the effect of a divalent cations on the electrostatic interaction between mimetics and cell membrane of yeast, we used calcium chloride at concentrations of 2, 5, 7.5 and 10 […]. […] At each concentration of this cation, the MIC of mimetics were determined by the method described above.

C. albicans SC5314 = assay: Immunosuppressed mouse model of invasive candidiasis, kidney burden; assay type: in vivo, CD-1 mice; conditions: 20 mg/kg by gavage 2 h after infection, 24 h, average of four independent experiments
Method: C. albicans SC5314 were grown in YPD broth (Difco laboratories, Detroit, MI, USA) and stock cultures were stored at −80 °C. The frozen stocks were first grown on YPD plates and kept at 4 °C. Prior to each experiment, a stock inoculum suspension of Candida was prepared in YPD broth and incubated at 30 °C with shaking at 200 rpm for 12 h. The culture was washed twice with sterile 1X phosphate buffered saline (PBS), counted with a hemocytometer, and diluted with PBS to get the desired concentration of 3.5 × 10^5 cfu/mL. 100 µL was injected intravenously (IV) into each mouse via the tail vein. […]
Male CD-1 mice, 6–8 weeks old (20–22 g), were made neutropenic with two intraperitoneal (IP) injections of 150 mg/kg in 10 mL/kg cyclophosphamide four days and one day before inoculation. […] 2 h after C. albicans inoculation, mimetic compounds were injected subcutaneously (SC) at 0.5X of the MTD (determined by […] as described). Fluconazole (20 mg/kg) was administered to another group by oral gavage at 2 h post inoculation, as a positive control for the experiments, to confirm the ability to quantify an effect on kidney burden. […] Serial dilutions of the tissue homogenates were conducted, 0.1 mL aliquots were spread on YPD agar plates, and the plates incubated at 35 °C overnight. cfu/g kidneys were determined from colony counts. […]

[8] = 32 µg/mL HDP mimetic, C. albicans
[9] = C. albicans SC5314, 50% human serum, read-out: MIC+50% Human serum
[10] = C. albicans SC5314, without human serum
[11] = C. albicans SC5314, without human serum, 24 h, read-out: MIC

Compound	PI entered the cell (C. albicans [1]; positive control, within 7 min) [%]	MIC (C. tropicalis (ATCC 750)) [mg/L]	EC50 at 1 h [2] [µM]	EC50 (whole human blood) [µM]	time to maximum incorporation of PI (C. albicans [1]; [8]) [min]	MIC (C. krusei (ATCC 6258)) [mg/L]	MIC [3] [mg/L]	MTD [4] [mg/kg free base]	MIC [5, 9] [mg/L]	MFC [5, 10] [mg/L]	MIC [5, 11] [mg/L]	MIC (C. glabrata (ATCC 90030)) [mg/L]	MIC [6] [mg/L]	MIC (C. albicans [7]) [mg/L]	rate of membrane activity (PI incorporation) (C. albicans [1]; 32 µg/mL HDP mimetic, C. albicans, comparison among compounds)	log10 reduction in kidney cfu (C. albicans SC5314) [log]
CCO [95% ethanol, ethanol, reference compound]	100															
N=C(N)N1CCN(c2ccc(-c3cc(-c4ccc(N5CCN(C(=N)N)CC5)cc4)ncn3)cc2)CC1 [Compound 1]		4 to 8 (≈ 8.25 to 16.5 µM)	311	> 1790	30	32 (≈ 66 µM)	8 (≈ 16.5 µM)	10	4 (≈ 8.25 µM)	8 (≈ 16.5 µM)	4 (≈ 8.25 µM)	4 (≈ 8.25 µM)	4 to 8 (≈ 8.25 to 16.5 µM)			
N=C(N)NCCCc1cc(CCCNC(=N)N)cc(NC(=O)c2ccc(C(=O)Nc3cc(CCCNC(=N)N)cc(CCCNC(=N)N)c3)cc2)c1 [Compound 2]		8 (≈ 11.2 µM)	358	> 1160	30	8 (≈ 11.2 µM)	32 (≈ 44.9 µM)	10	4 (≈ 5.61 µM)	16 (≈ 22.4 µM)	4 (≈ 5.61 µM)	8 (≈ 11.2 µM)	1 (≈ 1.4 µM)	> 60		
NCCCOc1cc(OCCCN)cc(-c2ccc3c(c2)c2cc(-c4cc(OCCCN)cc(OCCCN)c4)ccc2n3CCCN)c1 [Compound 4]		2 to 4 (≈ 2.99 to 5.98 µM)	436	> 1170		16 (≈ 23.9 µM)	4 (≈ 5.98 µM)	20	4 (≈ 5.98 µM)	8 (≈ 12 µM)	4 (≈ 5.98 µM)	2 (≈ 2.99 µM)	2 (≈ 2.99 µM)		most rapid membrane activity	
OC(Cn1cncn1)(Cn1cncn1)c1ccc(F)cc1F [Fluconazole, fluconazole, reference compound]											0.25 (≈ 0.816 µM)					3
